Test results reported in patent US11325906B2, “Chemical compounds” (AstraZeneca AB, priority 2019, dated 2022).

What was measured:
DLD1 cells = test: PARP proliferation assay (4 day compound dosing), WT DLD1; format: cell-based; details: Homo sapiens, 96 h, WT DLD-1 cells, read-out: WT DLD-1 prolif 4 d IC50
BRCA2 (−/−) DLD1 cells = test: PARP proliferation assay (4 day compound dosing), BRCA2 (−/−) DLD1; format: cell-based; details: Homo sapiens, 96 h, BRCA2 −/− DLD-1 cells, read-out: BRCA2 −/− DLD-1 prolif 4 d IC50

In the case of `CCc1cc2ncc(CN3CCN(c4ccc(C(=O)NC)nc4C)CC3)cc2[nH]c1=O` [Example 31, 5-[4-[(7-ethyl-6-oxo-5H-1,5-naphthyridin-3-yl)methyl]piperazin-1-yl]-N,6-dimethyl-pyridine-2-carboxamide], the IC50 (DLD1 cells) is reported as > 30000 nM and the IC50 (BRCA2 (−/−) DLD1 cells) is reported as 4 nM.
